# Earlier results, collected in US4000310A, “Pharmaceutical compositions containing 6-methyl-3,4-diphenyl-3,4,5,6-tetrahydro-2-pyrone or derivatives thereof” (Union Chimique Continentale-U.C.C, priority 1974, dated 1976).
# System: animals
# Conditions: caffeine, general statement; cited from earlier work
smiles,measurement,value
Cn1c(=O)c2c(ncn2C)n(C)c1=O [caffeine],sleep inhibiting effect,caffeine does
